According to paper PMC6259646, “Role of Intestinal Hydrolase in the Absorption of Prenylated Flavonoids Present in Yinyanghuo” (Molecules, 2011):

What was measured:
[1] = tested on: rat intestine; assay: four-site single-pass perfused rat intestinal model: effective permeability and metabolite formation; type: in vivo; conditions: for metabolites detected in the perfusate: HPLC; for identity of intestinal metabolite: rat intestinal perfusate, LC/MS/MS, loss of saccharide group at C7
Source text: Male Sprague-Dawley rats weighing between 250 and 300 g were obtained from the SLEK Lab Animal Center of Shanghai (Shanghai, China). The rats were fed with water and a standard diet. The rats were fasted overnight before the day of the experiment.
The surgical procedures were approved by the Animal Ethics Committee of Jiangsu Provincial Academy of Chinese Medicine. Anesthesia was induced by an i.m. injection of urethane (0.5 g/mL). After the rat was anesthetized, it was put over a heating blanket and under a heating lamp to keep its normal body temperature. We then cannulated four segments of the intestine, each with two cannulae. After each cannula was inserted, it was secured with a sterilized black suture before the next cannula was inserted and secured. First, the duodenum was located as the intestinal segment immediately adjacent to the stomach, and two cannulae at 10 cm apart were inserted into two ends of the duodenum and secured with suture. Next, the jejunum was located below the duodenum, and the first cannula was inserted at 4 cm below the duodenal outlet cannula, whereas the second cannula was inserted at 10 cm below the first jejunal cannula. Then, the terminal ileum was located by identifying the ileocecal junction of the rat intestine. The outlet cannula was inserted into the ileum at 2 cm above the junction, and the inlet cannula was inserted 10 cm above the outlet cannula. Lastly, the colon inlet cannula was inserted into the colon at 2 cm below the junction, and the outlet cannula was inserted through the anus. After cannulation, the small intestinal segments were placed carefully into the abdominal cavity, avoiding crimping or kinking of the segments. The incision was then covered by a normal saline-wetted paper towel. A piece of plastic wrap was put on the towel to keep the intestinal segments moist. Additionally, caution was also exercised to keep the inlet and outlet cannulate at the same height to avoid gravitational flow. To keep the temperature of the perfusate constant, the inlet cannulate was kept warm by a 37°C circulating water bath.
This is a single-pass perfusion method. Four segments of the intestine (duodenum, upper jejunum, terminal ileum, and colon) were perfused simultaneously with a perfusate containing the compound of interest using an infusion pump (Harvard Apparatus, Cambridge, MA, USA) at a flow rate of 0.2 mL/min. After a 30-min washout period, which is usually sufficient to achieve the steady-state absorption, four samples were collected from the outlet cannulae every 30 min afterward. After perfusion, the length of the intestine was measured as described previously The outlet concentrations of the test compounds in the luminal perfusate were determined by HPLC or LC/MS/MS.
The samples were separated on a Zorbax SB-C18 column (250 mm × 4.6 mm, 5 μm, Agilent). The mobile phase consisted of acetonitrile (A) and water containing 0.1% acetic acid (B). […] For MS analysis, the electro spray ionization (ESI) source was operated in the positive ion mode.
In the perfused rat intestinal model, Peff^* (effective permeability) is a representation of the intestinal membrane permeability. Peff^* of the compounds are calculated using the following equations: Peff^∗=1−Cm/Co/4Gz where Co and Cm are inlet and outlet concentrations, respectively; Gz, or Graetz number ( Gz=πDL/2Q ), is a scaling factor that incorporates flow rate (Q), intestinal length (L), and diffusion coefficients (D) to make the permeability dimensionless. Cm was adjusted for water flux, data points were discarded if the water flux exceeded 0.5%/cm of intestine.

[2] = tested on: lactase phlorizin hydrolase; assay: co-perfusion with LPH inhibitor gluconolactone in perfused rat intestinal model: inhibition of hydrolysis; type: in vivo; conditions: 10 μM flavonoid co-perfused with gluconolactone (40μM)
Protocol: This is a single-pass perfusion method. […] After a 30-min washout period, which is usually sufficient to achieve the steady-state absorption, four samples were collected from the outlet cannulae every 30 min afterward. After perfusion, the length of the intestine was measured as described previously The outlet concentrations of the test compounds in the luminal perfusate were determined by HPLC or LC/MS/MS. […] The total gluconolactone concentration was 40μM. After perfusion, perfusates were collected and determined by HPLC. […] The accuracy and precision were greater than 98%.

Row | Structure (SMILES) | metabolites detected in the perfusate [1] | identity of intestinal metabolite [1] | hydrolysis inhibition rate, colon [2] [%] | hydrolysis inhibition rate, duodenum [2] [%] | hydrolysis inhibition rate, ileum [2] [%] | hydrolysis inhibition rate, jejunum [2] [%]
1 | COc1ccc(-c2oc3c(CC=C(C)C)c(O[C@@H]4O[C@H](CO)[C@@H](O)[C@H](O)[C@H]4O)cc(O)c3c(=O)c2O[C@@H]2O[C@@H](C)[C@H](O)[C@@H](O)[C@H]2O)cc1 [icariin] | two metabolites | baohuoside I | 46 | 62 | 40 | 50
2 | COc1ccc(-c2oc3c(CC=C(C)C)c(OC4OC(CO)C(O)C(O)C4O)cc(O)c3c(=O)c2OC2OC(C)C(O)C(O)C2OC2OCC(O)C(O)C2O)cc1 (stereo not shown) [epimedin B] | one metabolite | sagittatoside B | 22 | 42 | 74 | 40
3 | COc1ccc(-c2oc3c(CC=C(C)C)c(OC4OC(CO)C(O)C(O)C4O)cc(O)c3c(=O)c2OC2OC(C)C(O)C(O)C2OC2OC(C)C(O)C(O)C2O)cc1 (stereo not shown) [epimedin C] | one metabolite | 2″-O-rhamnosylicariside II | 35 | 42 | 52 | 40
4 | COc1ccc(-c2oc3c(CC=C(C)C)c(O)cc(O)c3c(=O)c2O[C@@H]2O[C@@H](C)[C@H](O)[C@@H](O)[C@H]2O)cc1 [baohuoside I] | no metabolites were detected | – | – | – | – | –
5 | COc1ccc(-c2oc3c(CC=C(C)C)c(OC4OC(CO)C(O)C(O)C4O)cc(O)c3c(=O)c2OC2OC(C)C(O)C(O)C2OC2OC(CO)C(O)C(O)C2O)cc1 (stereo not shown) [epimedin A] | one metabolite | sagittatoside A | 14 | 55 | 21 | 26
